From patent publication US10323022B2, “Pyrrolidinyl urea, pyrrolidinyl thiourea and pyrrolidinyl guanidine compounds as TrkA kinase inhibitors” (Array BioPharma Inc., priority 2011, dated 2019) come the findings set out here.

pIC50: −log10 of the molar value. Structures can show the parent of a compound that is named as a salt.

TrkA, sequence (P04629 33-796): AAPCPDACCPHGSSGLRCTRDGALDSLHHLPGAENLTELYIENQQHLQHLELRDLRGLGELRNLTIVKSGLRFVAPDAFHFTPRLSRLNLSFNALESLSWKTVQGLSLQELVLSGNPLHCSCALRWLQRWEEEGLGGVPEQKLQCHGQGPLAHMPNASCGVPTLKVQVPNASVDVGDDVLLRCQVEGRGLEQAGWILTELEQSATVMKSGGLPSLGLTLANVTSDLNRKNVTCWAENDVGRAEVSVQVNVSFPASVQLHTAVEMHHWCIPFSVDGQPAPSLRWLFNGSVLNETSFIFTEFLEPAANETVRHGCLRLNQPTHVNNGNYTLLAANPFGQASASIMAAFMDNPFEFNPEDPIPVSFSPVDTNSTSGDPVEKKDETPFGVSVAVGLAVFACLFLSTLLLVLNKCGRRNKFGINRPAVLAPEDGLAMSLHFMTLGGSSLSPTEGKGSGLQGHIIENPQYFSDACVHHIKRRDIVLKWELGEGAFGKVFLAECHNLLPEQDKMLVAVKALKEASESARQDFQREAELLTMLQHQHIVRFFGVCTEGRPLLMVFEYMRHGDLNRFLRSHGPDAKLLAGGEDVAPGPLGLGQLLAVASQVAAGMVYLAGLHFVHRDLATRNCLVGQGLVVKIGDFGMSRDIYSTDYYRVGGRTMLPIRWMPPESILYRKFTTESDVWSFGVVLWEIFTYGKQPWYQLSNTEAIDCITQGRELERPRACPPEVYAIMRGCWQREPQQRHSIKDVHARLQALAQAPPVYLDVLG

This assay addresses TrkA (Homo sapiens (Human), UniProt P04629). Description: TrkA Omnia Assay. The class given is biochemical. Particulars: averaged IC50; 20 nM enzyme, 500 μM ATP, 10 μM peptide substrate. On the procedure: Trk enzymatic selectivity was assessed using Omnia™ Kinase Assay reagents from Invitrogen Corp. Enzyme (TrkA from Invitrogen Corp.) and test compound (various concentrations) were incubated for 10 minutes at ambient temperature in a 384-well white polypropylene plate (Nunc catalog#267462). Omnia Tyr Peptide #4, as well as ATP, were then added to the plate. Final concentrations were as follows: 20 nM enzyme, 500 μM of ATP, 10 μM peptide substrate. The assay buffer consisted of 25 mM MOPS pH 7.5, 0.005% (v/v) Triton X-100 and 5 mM MgCl2. The production of phosphorylated peptide was monitored continuously for 70 minutes using a Molecular Devices FlexStation II^384 microplate reader (excitation=360 nm; emission=485 nm). Initial rates were calculated from the progress curves. IC50 values were calculated from these rates using either a 4 or 5-parameter logistic curve fit.
In the case of `COCCN1C[C@@H](NC(=O)Nc2c(Br)c(-c3cnn(C)c3)nn2-c2ccccc2)[C@H](c2cncc(F)c2)C1` [Example 440, 1-(4-bromo-1′-methyl-1-phenyl-1H,1′H-[3,4′-bipyrazol]-5-yl)-3-((3S,4R)-4-(5-fluoropyridin-3-yl)-1-(2-methoxyethyl)pyrrolidin-3-yl)urea], the pIC50 is above 7.00. The result for `COCCN1C[C@@H](NC(=O)Nc2c(C)c(OCC3(C)COC3)nn2-c2ccccc2)[C@H](c2ccc(F)c(F)c2)C1` [Example 75, 1-((3S,4R)-4-(3,4-difluorophenyl)-1-(2-methoxyethyl)pyrrolidin-3-yl)-3-(4-methyl-3-((3-methyloxetan-3-yl)methoxy)-1-phenyl-1H-pyrazol-5-yl)urea] reads above 7.00; that for `COCCN1C[C@@H](NC(=O)Nc2c3c(nn2-c2ccccc2)CCC3)[C@H](c2cccc(F)c2)C1` (relative stereo) [Example 39, trans-1-(4-(3-fluorophenyl)-1-(2-methoxyethyl)pyrrolidin-3-yl)-3-(2-phenyl-2,4,5,6-tetrahydrocyclopenta[c]pyrazol-3-yl)urea], above 7.00. `COCCN1C[C@@H](NC(=O)Nc2c(C)c(Br)nn2-c2ccccc2)[C@H](c2ccc(F)cc2)C1` [Example 516, 1-(3-bromo-4-methyl-1-phenyl-1H-pyrazol-5-yl)-3-((3S,4R)-4-(4-fluorophenyl)-1-(2-methoxyethyl)pyrrolidin-3-yl)urea] showed a pIC50 above 7.00. The result for `COCCN1C[C@@H](NC(=O)Nc2c(Cl)c(-c3nc(C)no3)nn2-c2ccccc2)[C@H](c2ccc(F)c(F)c2)C1` [Example 416, 1-(4-chloro-3-(3-methyl-1,2,4-oxadiazol-5-yl)-1-phenyl-1H-pyrazol-5-yl)-3-((3S,4R)-4-(3,4-difluorophenyl)-1-(2-methoxyethyl)pyrrolidin-3-yl)urea] reads above 7.00; that for `COCCN1C[C@@H](NC(=O)Nc2c(C)c(C(C)(C)CO)nn2-c2ccccc2)[C@H](c2ccc(F)c(F)c2)C1` [Example 118, 1-((3S,4R)-4-(3,4-difluorophenyl)-1-(2-methoxyethyl)pyrrolidin-3-yl)-3-(3-(1-hydroxy-2-methylpropan-2-yl)-4-methyl-1-phenyl-1H-pyrazol-5-yl)urea], above 7.00; that for `COCCN1C[C@@H](NC(=O)Nc2c(Cl)c(COC3CCNCC3)nn2-c2ccccc2)[C@H](c2ccc(F)c(F)c2)C1` [Example 590, 1-(4-chloro-1-phenyl-3-((piperidin-4-yloxy)methyl)-1H-pyrazol-5-yl)-3-((3S,4R)-4-(3,4-difluorophenyl)-1-(2-methoxyethyl)pyrrolidin-3-yl)urea dihydrochloride], above 7.00. The result for `Cc1c(-c2cn(C)cn2)nn(-c2ccccc2)c1NC(=O)N[C@@H]1CN(Cc2csnn2)C[C@H]1c1ccc(F)c(F)c1` [Example 252, 1-((3S,4R)-1-((1,2,3-thiadiazol-4-yl)methyl)-4-(3,4-difluorophenyl)pyrrolidin-3-yl)-3-(4-methyl-3-(1-methyl-1H-imidazol-4-yl)-1-phenyl-1H-pyrazol-5-yl)urea] reads above 7.00; that for `COCCN1C[C@@H](NC(=O)Nc2c(C)c(-c3ccncc3)nn2-c2ccccc2)[C@H](c2ccc(F)c(F)c2)C1` [Example 487, 1-((3S,4R)-4-(3,4-difluorophenyl)-1-(2-methoxyethyl)pyrrolidin-3-yl)-3-(4-methyl-1-phenyl-3-(pyridin-4-yl)-1H-pyrazol-5-yl)urea], above 7.00; that for `COCCN1C[C@@H](NC(=O)Nc2c(C)c(OCCN3CCN(C(C)=O)CC3)nn2-c2ccccc2)[C@H](c2ccc(F)c(F)c2)C1` [Example 546, 1-(3-(2-(4-acetylpiperazin-1-yl)ethoxy)-4-methyl-1-phenyl-1H-pyrazol-5-yl)-3-((3S,4R)-4-(3,4-difluorophenyl)-1-(2-methoxyethyl)pyrrolidin-3-yl)urea], above 7.00. The figure for `COCCN1C[C@@H](NC(=O)Nc2c(Cl)c(-c3ccccc3)nn2C)[C@H](c2ccc(F)c(F)c2)C1` [Example 67, 1-(4-chloro-1-methyl-3-phenyl-1H-pyrazol-5-yl)-3-((3S,4R)-4-(3,4-difluorophenyl)-1-(2-methoxyethyl)pyrrolidin-3-yl)urea] is 6.00 to 7.00.

`COCCN1C[C@@H](NC(=O)Nc2cc(-c3ccccc3)nn2C)[C@H](c2ccc(F)cc2F)C1` [Example 111, 1-((3S,4R)-4-(2,4-difluorophenyl)-1-(2-methoxyethyl)pyrrolidin-3-yl)-3-(1-methyl-3-phenyl-1H-pyrazol-5-yl)urea] showed a pIC50 above 7.00. In turn, `COCCN1C[C@@H](NC(=O)Nc2c(C)c([C@H]3C[C@H](O)C3)nn2-c2ccccc2)[C@H](c2ccc(F)cc2)C1` [Example 455, 1-((3S,4R)-4-(4-fluorophenyl)-1-(2-methoxyethyl)pyrrolidin-3-yl)-3-(3-(trans-3-hydroxycyclobutyl)-4-methyl-1-phenyl-1H-pyrazol-5-yl)urea] had a pIC50 above 7.00.

In turn, `COCCN1C[C@@H](NC(=O)Nc2c(C)c(-c3cnn(C)c3)nn2-c2ccccc2)[C@H](c2ccc(F)cc2)C1` [Example 441, 1-(1′,4-dimethyl-1-phenyl-1H, 1′H-[3,4′-bipyrazol]-5-yl)-3-((3S,4R)-4-(4-fluorophenyl)-1-(2-methoxyethyl)pyrrolidin-3-yl)urea] had a pIC50 above 7.00. The compound `COCCN1C[C@@H](NC(=O)Nc2c(Cl)c(-c3ccncc3)nn2-c2ccccc2)[C@H](c2ccc(F)c(F)c2)C1` [Example 481, 1-(4-chloro-1-phenyl-3-(pyridin-4-yl)-1H-pyrazol-5-yl)-3-((3 S,4R)-4-(3,4-difluorophenyl)-1-(2-methoxyethyl)pyrrolidin-3-yl)urea] showed a pIC50 above 7.00. The compound `COCCN1C[C@@H](NC(=O)Nc2c(C)c(-c3cnn(S(C)(=O)=O)c3)nn2-c2ccccc2)[C@H](c2ccc(F)c(F)c2)C1` [Example 502, 1-((3S,4R)-4-(3,4-difluorophenyl)-1-(2-methoxyethyl)pyrrolidin-3-yl)-3-(4-methyl-1′-(methylsulfonyl)-1-phenyl-1H, 1′H-[3,4′-bipyrazol]-5-yl)urea] showed a negative logarithm of the IC50 (pIC50) above 7.00. The figure for `COCCN1C[C@@H](NC(=O)Nc2c(C)c(OC)nn2-c2ccccc2)[C@H](c2ccc(F)cc2)C1` [Example 143, 1-((3S,4R)-4-(4-fluorophenyl)-1-(2-methoxyethyl)pyrrolidin-3-yl)-3-(3-methoxy-4-methyl-1-phenyl-1H-pyrazol-5-yl)urea] is above 7.00; for `COCCN1C[C@@H](NC(=O)Nc2c(Cl)c(-c3ccccc3)nn2-c2ccccc2)[C@H](c2ccc(F)c(F)c2)C1` [Example 62, 1-(4-chloro-1,3-diphenyl-1H-pyrazol-5-yl)-3-((3S,4R)-4-(3,4-difluorophenyl)-1-(2-methoxyethyl)pyrrolidin-3-yl)urea] it is above 7.00; for `COCCN1C[C@@H](NC(=O)Nc2c(C)c(OCC(F)F)nn2-c2ccccc2)[C@H](c2ccc(F)c(F)c2)C1` [Example 478, 1-(3-(2,2-difluoroethoxy)-4-methyl-1-phenyl-1H-pyrazol-5-yl)-3-((3 S,4R)-4-(3,4-difluorophenyl)-1-(2-methoxyethyl)pyrrolidin-3-yl)urea] it is above 7.00.

The compound `COCCN1C[C@@H](NC(=O)Nc2ccnn2C)[C@H](c2ccccc2)C1` (relative stereo) [Example 20, 1-(trans-1-(2-methoxyethyl)-4-phenylpyrrolidin-3-yl)-3-(1-methyl-1H-pyrazol-5-yl)urea] gave a pIC50 of 5.00 to 6.00. The figure for `COc1cccc([C@@H]2CN(CC(F)(F)F)C[C@H]2NC(=O)Nc2c3c(nn2-c2ccccc2)CCC3)c1` (relative stereo) [Example 207, 1-((trans)-4-(3-methoxyphenyl)-1-(2,2,2-trifluoroethyl)pyrrolidin-3-yl)-3-(2-phenyl-2,4,5,6-tetrahydrocyclopenta[c]pyrazol-3-yl)urea] is 6.00 to 7.00; for `COCCN1C[C@@H](NC(=O)Nc2c(C#N)c(OC)nn2-c2ccccc2)[C@H](c2ccc(F)c(F)c2)C1` [Example 615, 1-(4-cyano-3-methoxy-1-phenyl-1H-pyrazol-5-yl)-3-((3S,4R)-4-(3,4-difluorophenyl)-1-(2-methoxyethyl)pyrrolidin-3-yl)urea] it is above 7.00. In the case of `COCCN1C[C@@H](NC(=O)Nc2c(Cl)c(COC)nn2-c2ccccc2)[C@H](c2ccc(F)c(F)c2)C1` [Example 403, 1-(4-chloro-3-(methoxymethyl)-1-phenyl-1H-pyrazol-5-yl)-3-((3S,4R)-4-(3,4-difluorophenyl)-1-(2-methoxyethyl)pyrrolidin-3-yl)urea], the pIC50 was above 7.00. The figure for `CCOc1nn(-c2ccccc2)c(NC(=O)N[C@@H]2CN(CCC#N)C[C@H]2c2ccc(F)c(F)c2)c1C` [Example 471, 1-((3S,4R)-1-(2-cyanoethyl)-4-(3,4-difluorophenyl)pyrrolidin-3-yl)-3-(3-ethoxy-4-methyl-1-phenyl-1H-pyrazol-5-yl)urea] is 6.00 to 7.00; for `COCCN1C[C@@H](NC(=O)Nc2c(C)c(-c3ccnn3C)nn2-c2ccccc2)[C@H](c2ccc(F)c(F)c2)C1` [Example 494, 1-((3S,4R)-4-(3,4-difluorophenyl)-1-(2-methoxyethyl)pyrrolidin-3-yl)-3-(2′,4-dimethyl-1-phenyl-1H,2′H-[3,3′-bipyrazol]-5-yl)urea] it is above 7.00. Compound `CCOc1nn(-c2ccccc2)c(NC(=O)N[C@@H]2CN(c3cn[nH]c3)C[C@H]2c2ccc(F)c(F)c2)c1C` [Example 216, 1-((3S,4R)-4-(3,4-difluorophenyl)-1-(1H-pyrazol-4-yl)pyrrolidin-3-yl)-3-(3-ethoxy-4-methyl-1-phenyl-1H-pyrazol-5-yl)urea] had a pIC50 above 7.00.
